Reference: patent EP4678638A1, “NEW E3 UBIQUITIN LIGASE LIGAND, PROTEIN DEGRADATION AGENT AND USE THEREOF” (priority 2023, dated 2024)

Tests used:
RSK1 = target: T1, RSK1 (Homo sapiens, UniProt Q15418); assay: Western blot degradation of RSK1 (hPBMC); format: cell-based; conditions: Table D8
T1 construct: evaluate the effects of the compounds of the present disclosure on the expression of target proteins in cells; endogenous in cells; host or cells: hPBMC
Experimental: (§1) Conventional Western blot assay was performed to evaluate the effects of the compounds of the present disclosure on the expression of target proteins in cells.
(§2) (1) Cell Seeding and Protein Harvesting: The selected cells were processed according to the cell seeding procedure and protein harvesting procedure in Table III-2. Table III-2 Cell Seeding and Protein Harvesting Procedures
(§3) (2) To the collected supernatant, 5X SDS sample loading buffer was added, followed by denaturation at 95°C for 5 minutes. The denatured samples were then separated by SDS-PAGE electrophoresis on a polyacrylamide gel. Proteins were transferred to a nitrocellulose membrane (0.45 µm NC membrane), blocked with blocking buffer at room temperature for 1 hour, and subjected to antibody incubation and development procedures according to the antibody manufacturer's instructions (Cell Signaling Technology).
(§4) Half-Maximal Degradation Concentration value (the drug concentration required for degrading proteins by 50%, abbreviated as DC50) reads method: comparing the grayscale values of Western blot bands from drug-treated samples with those from blank DMSO-treated controls, and identifying the drug concentration range at which the grayscale value is half that of the DMSO-treated control bands.
(§5) DC50 values can be calculated using ImageJ software to measure grayscale values of Western blot bands from drug-treated samples. The concentration-response curve is fitted to estimate the drug concentration corresponding to half the grayscale value.
(§6) Target protein remaining (%) refers to the percentage of target protein remaining in hPBMC cells after treatment with protein degrader compounds.
(§7) Calculation method for target protein remaining (%): Use ImageJ software to measure grayscale values of Western blot bands from drug (protein degrader)-treated samples. The grayscale value of drug-treated bands is divided by that of internal control protein bands, and the resulting quotient is normalized to obtain the relative percentage of remaining target protein after protein degrader treatment.
(§8) Target protein degradation rate (%) = 100% - target protein remaining (%).

RSK2 = target: T2, RSK2 (Homo sapiens, UniProt P51812); assay: Western blot degradation of RSK2 (hPBMC); format: cell-based; conditions: Table D8
T2 construct: evaluate the effects of the compounds of the present disclosure on the expression of target proteins in cells; endogenous in cells; host or cells: hPBMC
T2 sequence (P51812 whole entry): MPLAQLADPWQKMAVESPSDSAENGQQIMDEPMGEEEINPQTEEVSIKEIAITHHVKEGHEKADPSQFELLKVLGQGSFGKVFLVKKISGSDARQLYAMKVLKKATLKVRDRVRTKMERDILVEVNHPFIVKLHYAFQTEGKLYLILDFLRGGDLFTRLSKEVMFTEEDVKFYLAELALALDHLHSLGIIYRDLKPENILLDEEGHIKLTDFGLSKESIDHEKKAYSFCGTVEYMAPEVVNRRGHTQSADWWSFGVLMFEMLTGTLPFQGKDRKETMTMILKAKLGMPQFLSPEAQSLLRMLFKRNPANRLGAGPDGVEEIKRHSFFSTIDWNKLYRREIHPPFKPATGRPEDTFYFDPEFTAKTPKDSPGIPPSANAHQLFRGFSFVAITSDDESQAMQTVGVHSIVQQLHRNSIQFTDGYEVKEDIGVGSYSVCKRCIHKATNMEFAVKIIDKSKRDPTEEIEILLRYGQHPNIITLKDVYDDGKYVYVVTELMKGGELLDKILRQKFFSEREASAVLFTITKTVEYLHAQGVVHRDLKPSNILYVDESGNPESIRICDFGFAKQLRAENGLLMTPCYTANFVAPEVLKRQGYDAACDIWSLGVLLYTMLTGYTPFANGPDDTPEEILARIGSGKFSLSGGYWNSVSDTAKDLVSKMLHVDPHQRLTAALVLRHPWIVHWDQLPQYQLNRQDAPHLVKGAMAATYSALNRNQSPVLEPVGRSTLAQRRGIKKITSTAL
Experimental: as §1, §2, §3, §4, §5, §6, §7, §8

T1 sequence (Q15418 whole entry): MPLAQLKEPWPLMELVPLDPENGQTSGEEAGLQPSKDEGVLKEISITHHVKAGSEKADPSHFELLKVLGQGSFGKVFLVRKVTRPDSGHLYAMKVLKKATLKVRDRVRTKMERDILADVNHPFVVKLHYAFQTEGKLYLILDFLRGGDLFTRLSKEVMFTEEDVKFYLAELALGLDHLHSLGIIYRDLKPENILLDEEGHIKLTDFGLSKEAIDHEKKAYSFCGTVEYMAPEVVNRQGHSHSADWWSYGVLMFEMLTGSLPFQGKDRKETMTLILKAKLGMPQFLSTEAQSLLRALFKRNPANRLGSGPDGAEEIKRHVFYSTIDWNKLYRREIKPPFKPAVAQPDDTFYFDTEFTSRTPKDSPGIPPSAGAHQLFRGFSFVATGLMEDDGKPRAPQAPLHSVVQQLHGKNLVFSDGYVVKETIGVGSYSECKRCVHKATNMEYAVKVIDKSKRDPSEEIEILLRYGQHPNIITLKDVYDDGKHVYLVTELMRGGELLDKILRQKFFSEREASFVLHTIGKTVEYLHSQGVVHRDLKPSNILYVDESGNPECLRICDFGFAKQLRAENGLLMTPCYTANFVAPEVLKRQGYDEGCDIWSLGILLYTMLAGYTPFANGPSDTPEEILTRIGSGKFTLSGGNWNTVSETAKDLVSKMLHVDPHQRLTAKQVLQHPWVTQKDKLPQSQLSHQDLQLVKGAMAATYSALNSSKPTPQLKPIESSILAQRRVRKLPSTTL

Row | SMILES | Degradation of substrate protein RSK1 (substrate protein remaining %) (RSK1) | Degradation of substrate protein RSK2 (substrate protein remaining %) (RSK2)
1 | C[C@@H]1CNC(=O)c2cc3ccc(C(=O)Nc4cnn(Cc5ccc(N6CCN(Cc7cccc(N8CCC(=O)NC8=O)c7)CC6)cc5)c4)nc3n21 [GT-07928, (R)-N-(1-(4-(4-(3-(2,4-dioxotetrahydropyrimidin-1(2H)-yl)benzyl)piperazin-1-yl)benzyl)-1H-pyrazol-4-yl)-9-methyl-6-oxo-6,7,8,9-tetrahydropyrido[3',2':4,5]py rrolo[1,2-a]pyrazine-2-carboxamide] | A (A is defined as 0% ≤ substrate protein remaining % ≤ 80%) | A (A is defined as 0% ≤ substrate protein remaining % ≤ 80%)
2 | C[C@@H]1CNC(=O)c2cc3ccc(C(=O)Nc4cnn(Cc5ccc(N6CCN(Cc7ccc(N8CCC(=O)NC8=O)cn7)CC6)cc5)c4)nc3n21 [GT-07929, (R)-N-(1-(4-(4-((5-(2,4-dioxotetrahydropyrimidin-1(2H)-yl)pyridin-2-yl)methyl)piperazin-1-yl)benzyl)-1H-pyrazol-4-yl)-9-methyl-6-oxo-6,7,8,9-tetrahydropyrido[3',2':4,5]py rrolo[1,2-a]pyrazine-2-carboxamide] | A (A is defined as 0% ≤ substrate protein remaining % ≤ 80%) | B (B is defined as substrate protein remaining % > 80%)
3 | C[C@@H]1CNC(=O)c2cc3ccc(C(=O)Nc4cnn(Cc5ccc(N6CCN(Cc7ccc(N8CCC(=O)NC8=O)nc7)CC6)cc5)c4)nc3n21 [GT-07930, (R)-N-(1-(4-(4-((6-(2,4-dioxotetrahydropyrimidin-1(2H)-yl)pyridin-3-yl)methyl)piperazin-1-yl)benzyl)-1H-pyrazol-4-yl)-9-methyl-6-oxo-6,7,8,9-tetrahydropyrido[3',2':4,5]py rrolo[1,2-a]pyrazine-2-carboxamide] | A (A is defined as 0% ≤ substrate protein remaining % ≤ 80%) | B (B is defined as substrate protein remaining % > 80%)
4 | C[C@@H]1CNC(=O)c2cc3ccc(C(=O)Nc4cnn(Cc5ccc(N6CCN(Cc7cccc(NC8CCC(=O)NC8=O)c7)CC6)cc5)c4)nc3n21 (stereo partly drawn) [GT-07931, (9R)-N-(1-(4-(4-(3-((2,6-dioxopiperidin-3-yl)amino)benzyl)piperazin-1-yl)benzyl)-1H-pyrazol-4-yl)-9-methyl-6-oxo-6,7,8,9-tetrahydropyrido[3',2':4,5]py rrolo[1,2-a]pyrazine-2-carboxamide] | A (A is defined as 0% ≤ substrate protein remaining % ≤ 80%) | A (A is defined as 0% ≤ substrate protein remaining % ≤ 80%)
5 | C[C@@H]1CNC(=O)c2cc3ccc(C(=O)Nc4cnn(Cc5ccc(N6CCN(Cc7cc(C8CCC(=O)NC8=O)cnc7F)CC6)cc5)c4)nc3n21 (stereo partly drawn) [GT-07932, (9R)-N-(1-(4-(4-((5-(2,6-dioxopiperidin-3-yl)-2-fluoropyridin-3-yl)methyl)piperazin-1-yl)benzyl)-1H-pyrazol-4-yl)-9-methyl-6-oxo-6,7,8,9-tetrahydropyrido[3',2':4,5]py rrolo[1,2-a]pyrazine-2-carboxamide] | A (A is defined as 0% ≤ substrate protein remaining % ≤ 80%) | B (B is defined as substrate protein remaining % > 80%)
6 | C[C@@H]1CNC(=O)c2cc3ccc(C(=O)Nc4cnn(Cc5ccc(N6CCN(Cc7ncc(C8CCC(=O)NC8=O)cc7F)CC6)cc5)c4)nc3n21 (stereo partly drawn) [GT-07933, (9R)-N-(1-(4-(4-((5-(2,6-dioxopiperidin-3-yl)-3-fluoropyridin-2-yl)methyl)piperazin-1-yl)benzyl)-1H-pyrazol-4-yl)-9-methyl-6-oxo-6,7,8,9-tetrahydropyrido[3',2':4,5]py rrolo[1,2-a]pyrazine-2-carboxamide] | A (A is defined as 0% ≤ substrate protein remaining % ≤ 80%) | B (B is defined as substrate protein remaining % > 80%)
